The record followed here is patent US20080242869A1, “Tri(Cyclo) Substituted Amide Compounds” (priority 2004, published 2008).

The experiment deals with T1, GST-GK, derived from human liver GK (Homo sapiens, UniProt P35557).
T1 sequence (P35557 1-466 isoform P35557-2): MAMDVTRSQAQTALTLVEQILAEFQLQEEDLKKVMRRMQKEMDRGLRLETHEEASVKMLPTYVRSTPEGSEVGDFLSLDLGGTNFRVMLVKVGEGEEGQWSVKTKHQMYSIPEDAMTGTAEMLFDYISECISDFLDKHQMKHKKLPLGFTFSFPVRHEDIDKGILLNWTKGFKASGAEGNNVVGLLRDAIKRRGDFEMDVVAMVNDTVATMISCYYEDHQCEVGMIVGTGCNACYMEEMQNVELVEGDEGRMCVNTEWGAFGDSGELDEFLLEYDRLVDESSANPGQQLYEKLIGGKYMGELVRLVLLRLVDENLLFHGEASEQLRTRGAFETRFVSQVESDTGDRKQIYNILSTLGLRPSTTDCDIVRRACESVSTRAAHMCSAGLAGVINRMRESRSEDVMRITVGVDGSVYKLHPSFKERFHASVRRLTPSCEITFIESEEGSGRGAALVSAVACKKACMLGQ
Put plainly: In vitro GK activity: G6P production by GST-GK coupled to NADPH generation with G6PDH. The class given is biochemical. The conditions noted are these: 5 mM D-Glc, 30° C., OD 340 nm over 10 min. As for the experimental part: Using a protocol similar to that described in WO2000/58293, GK activity may be assayed by coupling the production of G6P by GST-GK to the generation of NADPH with G6PDH as the coupling enzyme.
The GK assay is performed at 30° C. in a flat bottom 96-well assay plate from Costar with a final incubation volume of 100 μL. The assay buffer contains: 25 mM Hepes buffer (pH 7.4), 12.5 mM KCl, 5 mM D-Glc, 5 mM ATP, 6.25 mM NADP, 25 mM MgCl2, 1 mM dithiothreitol, test compound or 5% DMSO, 3.0 unit/mL G6PDH, and 0.4 μL/mL GST-GK, derived from human liver GK. ATP, G6PDH, and NADP may be purchased from Roche Diagnostics. The other reagents are >98% pure and may be purchased from Kanto Chemicals. The test compounds are dissolved in DMSO, before being added to the assay buffer without ATP. This mix is preincubated in the temperature controlled chamber of a SPECTRAmax 250 microplate spectrophotometer (Molecular Devices Corporation, Sunnyvale, Calif.) for 10 min, then the reaction started by the addition of 10 μL ATP solution.
After starting the reaction, the increase in optical density (OD) at 340 nm is monitored over a 10 min incubation period as a measure of GK activity. […] The compound concentrations that produced a 50% increase in GK activity (i.e. FA1.5) are calculated. […]

For the compound `O=C1CC[C@H](C[C@@H](C(=O)Nc2ncc(F)s2)c2ccc(S(=O)(=O)C3CC3)cc2)C1` [Example 7, 2(R)-2-(4-Cyclopropanesulfonylphenyl)-N-(5-fluorothiazol-2-yl)-3-((R)-3-oxocyclopentyl)propionamide], the “maximum activation of GK” value is listed as “greater than 4 fold”. Also, for the setting “read-out: EC50 (concentration of test compound which produces 50% activation)”, the EC50 is under 500 nM.
